pIC50: −log10 of the molar value. Like-named read-outs stand apart in the source and are kept apart here.
Experiments:
Assay type in all cases: cell-based
[1] = system: HEC-1A cells; test: Cell viability assay (ATP-lite); settings: for pIC50: Homo sapiens
Experimental: (§1) AN3-CA (PTEN-deficient), RL95-2 (PTEN-deficient), and HEC-1A (PTEN-wild type) cells were plated in 45 μl of RPMI-1640 media supplemented with 10% FBS and 1% Pen/Strep at a density of 1000 cells per well in white 384-well plates. Cells were allowed to attach by incubation overnight at 37° C. and 5% CO2. Test compounds were diluted to 10× concentrations in RPMI-1640 media (containing 3% DMSO) and 5 μl 1 of these dilutions were added in triplicate to the appropriate wells containing the cells. The plates containing the drug-treated cells and appropriate controls were incubated for 96 hours. At the end of the incubation, 40 μl of ATP-lite (PerkinElmer, Inc., Waltham, Massachussetts) reagent were added to each well and luminescence signal was measured on an EnVision microplate reader.
(§2) Alternatively, AN3-CA, RL95-2, HEC-1A endometrial cancer cell lines were plated at a density of 2000 cells per well in a 96 well culture plate in 45 μl of cell culture media and incubated overnight. […] Vehicle treated controls were also included and each condition was applied in quadruplicate. Following 96 hours of incubation, 35 μL of ATP-lite (PerkinElmer) reagent was added each well and allowed to react for 10 minutes. Plate was read on a Envision 2104 MultiLabel reader (PerkinElmer).
(§3) IC50 values are determined using GraphPad Prism 5 software. The data were entered as an X-Y plot into the software as percent inhibition for each concentration of the drug. The concentration values of the drug were log transformed and the nonlinear regression was carried out using the “sigmoidal dose-response (variable slope)” option within the GraphPad software to model the data and calculate IC50 values.

[2] = system: RL95-2 cells; test: Cell viability assay (ATP-lite); settings: for pIC50: Homo sapiens
Experimental: as §1, §2, §3

[3] = system: HCT-15; test: Cell viability assay, cancer cell line panel; settings: Homo sapiens, mutation KRAS, PIK3CA
[4] = system: HT-29; test: Cell viability assay, cancer cell line panel; settings: Homo sapiens, mutation PIK3CA, BRAF

- pIC50 [3]: 5.16
- pIC50 [4]: 4.97
SMILES: O=C(Nc1ccc2[nH]nc(-c3nc4ccc(N5CCOCC5)cc4[nH]3)c2c1)C1CC1(F)F (stereo not drawn) [Compound 1, 2,2-difluoro-N-(3-(5-morpholino-1H-benzo[d]imidazol-2-yl)-1H-indazol-5-yl)cyclopropanecarboxamide]
- Potency in cell viability assay, HEC-1A (in words) ([1]; FIG. 6): relatively inactive
- pIC50 ([1]; HEC-1-A, Table VI panel, mutation KRAS, PIK3CA, read-out: IC50 cell viability, Hec-1A): 5.42
- pIC50 ([1]; HEC-1A (PTEN-wild type), read-out: Cell Viability IC50 HEC-1A): 5.42
- Potency in cell viability assay, RL-95-2 (in words) ([2]; FIG. 6): moderately potent
- pIC50 ([2]; RL95-2, Table VI panel, mutation PTEN, HRAS, read-out: IC50 cell viability, RL95-2): 6.18
- pIC50 ([2]; RL95-2, read-out: IC50 cell viability, RL-95-A): 6.32
- pIC50 ([2]; RL95-2 (PTEN mutation), read-out: Cell Viability IC50 RL95-2): 6.32

Reference: US8569511B2, “Substituted 3-(1H-benzo[d]imidazol-2-yl)-1H-indazole analogs as inhibitors of the PDK1 kinase” (University of Utah Research Foundation, priority 2011, dated 2013)
